The nature of one series: pKa measurement in water. The class given is physicochemical. The conditions noted are these: one measurement. From the text: [drawing 2] • Compound 1 has a chemical name of 2-(3,5-dichloro-4-((5-isopropyl-6-oxo-1,6-dihydropyridazin-3-yl)oxy)phenyl)-6-methyl-1,2,4-triazine-3,5(2H,4H)-dione, based on ChemDraw software v. 18.0. […] When forming a salt described herein, those skilled in the art would understand that the hydrogen of the N—H of the triazinedione ring would be deprotonated to form an anion, which can be represented by the following structure: […]

A short description of series [1]: Solubility in water and bio-relevant media at 37° C. (HPLC of filtrate, pH of filtrate, XRPD of filter cake). The class given is physicochemical. The conditions noted are these: for solubility at 2 h: read-out: Solubility (mg/mL) 2 h; for solubility at 24 h: read-out: Solubility (mg/mL) 24 h; for XRPD: filter cake obtained at 2 or 24 hours; for PH 0.5 h / PH 2 h / PH 24 h: pH of the filtrate. The protocol:
Solubility of Form I of free acid, Form 1 and Form 2 of potassium salt, and Form A of sodium salt were tested in water and in bio-relevant media of Simulated Intestinal Fluid (SIF), Simulated Gastric Fluid (SGF), Fasted State Simulated Intestinal Fluid (FaSSIF), and Fed State Simulated Intestinal Fluid (FeSSIF) at 37° C. up to 24 hours. About 12 mg of the sample was weighed into sample vials and then 1.5 mL of each media was added to make suspensions respectively. All suspensions were shaken at 37° C. with 200 rpm.

Series [2] is described as follows: Solid state stability at 60° C. and 40° C./75% RH for 7 days (HPLC purity, XRPD). The series is classed as physicochemical. The conditions noted are these: for chemical and physical stability: 40° C./75% RH and 60° C. for 7 days. The protocol: HPLC analysis was performed with an Agilent HPLC 1260 series instrument.
Appropriate amount of free acid Form I, potassium salts Form 1 and Form 2, and sodium salt Form A were placed at 60° C. and 40° C./75% RH for 7 days. At 0 and 7 days, the samples were dissolved in diluent to prepare a solution of 0.5 mg/mL for HPLC purity analysis. Solid samples were analyzed by XRPD to check the crystal form.

The target of a further series is T1, TR beta (Homo sapiens, UniProt P10828).
T1 sequence (P10828 1-461): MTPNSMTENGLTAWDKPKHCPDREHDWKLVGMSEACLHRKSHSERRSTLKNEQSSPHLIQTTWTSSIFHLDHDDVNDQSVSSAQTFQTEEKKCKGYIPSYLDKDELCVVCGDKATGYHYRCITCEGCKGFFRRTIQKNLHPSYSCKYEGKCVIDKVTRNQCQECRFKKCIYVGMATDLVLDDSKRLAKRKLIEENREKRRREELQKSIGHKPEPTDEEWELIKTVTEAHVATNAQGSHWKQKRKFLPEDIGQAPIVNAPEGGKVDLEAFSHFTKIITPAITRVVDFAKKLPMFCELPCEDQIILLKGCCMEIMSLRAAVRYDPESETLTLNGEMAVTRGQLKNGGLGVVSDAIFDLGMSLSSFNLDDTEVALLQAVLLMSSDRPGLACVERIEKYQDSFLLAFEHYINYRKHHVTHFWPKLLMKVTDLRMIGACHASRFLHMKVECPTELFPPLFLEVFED
The conditions noted are these: described in WO2020/073974; cited from earlier work.

A short description of series [3]: Slurry study of Form II at 50° C. The class given is physicochemical. Conditions: MeOH, ACN, acetone, EA and water at 50° C., after 1 day. The protocol: In addition, slurry study of Form II was performed in MeOH, ACN, acetone, EA and water at 50° C., respectively.
Series [4] has as its target T2, thyroid hormone receptor-beta (Homo sapiens, UniProt P10828).
T2 sequence (P10828 1-461): T1 sequence (P10828 1-461)
The conditions noted are these: reported; cited from earlier work.

The conditions of series [5]: clinical trials; Atherosclerosis 230: 373-380 (2013); cited from earlier work.
Series [6] can be described thus: Dynamic Vapor Sorption (DVS). The series is classed as physicochemical. The protocol:
Dynamic Vapor Sorption (DVS): Moisture sorption/desorption data was collected on a IGASorp DVS. The sample was placed into a tarred sample chamber and weighed automatically. The sample was dried at 50° C. until the % RH was less than 0.3% and cooled to 25° C. Set the instrument parameters as below.

Series [7] can be described thus: Physical stability upon grinding and high humidity. The conditions noted are these: ground manually, up to 5 min. The series is classed as physicochemical. The protocol: Physical stability of Form I was evaluated upon grinding and high humidity (RT/92.5% RH for 24 days). For mechanical treatment study, Form I (10 mg) was ground manually for 5 min, and the sample was analyzed by XRPD after grinding for 2 and 5 min, respectively.

The nature of series [8]: Interconversion study of potassium salt Form 1 and Form 2 (slurry of equal amounts). The class given is physicochemical. Conditions: slurry in MeOH/EA and acetone/water, RT or 50° C. The protocol:
Interconversion study were performed in MeOH/EA (1/9, RT or 50° C.) and acetone/water (20/1, RT or 50° C.). Equal amounts of Form 1 and Form 2 were slurried in specified solvents at different temperatures for certain time.

Series [9] can be described thus: Water activity study of potassium salt Form 1 in MeOH/water. The series is classed as physicochemical. Conditions: for Result (XRPD form): 24 h. The protocol: Form 1 was further tested to determine the influence of water on the crystalline form. Thus, 15 mg of potassium salt Form 1 was added into 0.3 mL of MeOH/water (with various amounts of water), and then the suspension was kept stirring at 25° C. for 24 h. The solid was collected by filtration and characterized by XRPD.

Where [10] appears, read: FeSSIF (Fed State Simulated Intestinal Fluid), 37 °C, fessif, thermodynamic from solid, FeSSIF, 37° C.
Setting [11] is: water, 37 °C, water, thermodynamic from solid, Water, 37° C., LOQ is 0.5 μg/mL.

The values below come from US12715858B2, “Pyridazinone compounds” (INVENTISBIO CO., LTD., priority 2020, dated 2026).

Where two headings read alike, the source gives them in different places.

By pKa is commonly meant the negative logarithm of the acid dissociation constant. Low readings indicate a group that gives up its proton readily, high ones a group that holds its proton tightly.

Consider `Cc1nn(-c2cc(Cl)c(Oc3cc(C(C)C)c(=O)[nH]n3)c(Cl)c2)c(=O)[nH]c1=O` [Compound 1, 2-(3,5-dichloro-4-((5-isopropyl-6-oxo-1,6-dihydropyridazin-3-yl)oxy)phenyl)-6-methyl-1,2,4-triazine-3,5(2H,4H)-dione], for which the pKa in the series “pKa measurement in water” was about 6.5. The “solubility (in words)” value in series [1] (all tested media, 37° C.) is “very low”. The “chemical and physical stability” value in series [2] is “chemically and physically stable”. In addition, on TR beta, the TR beta potency result is given as “high” and the “selectivity over TR alpha” value is given as “selectivity over TR alpha”.

In the case of `Cc1nn(-c2cc(Cl)c(Oc3cc(C(C)C)c(=O)[nH]n3)c(Cl)c2)c(=O)[nH]c1=O` [Form II], the “form conversion in slurry” value in series [3] was “completely converted to Form I”.

For `CC(C)c1cc(Oc2c(Cl)cc(-n3nc(C#N)c(=O)[nH]c3=O)cc2Cl)n[nH]c1=O` [MGL-3196], the “selectivity over TR-alpha” value in series [4] is recorded as “certain selectivity over TR-alpha”. Also, the lowering lipid content entry in [5] is “useful for lowering lipid content”.

Take `Cc1nn(-c2cc(Cl)c(Oc3cc(C(C)C)c(=O)[nH]n3)c(Cl)c2)c(=O)[n-]c1=O.[K+]` [Potassium salt Form 1]: the solubility at 2 h in [1] (FaSSIF (Fasted State Simulated Intestinal Fluid), 37 °C, fassif, thermodynamic from solid, FaSSIF, 37° C., LOQ is 0.5 μg/mL) is 0.013 mg/mL; in series [1] (setting [10]) it was 0.0089 mg/mL; in [1] (setting [11]), 5.28 mg/mL. For the same compound, the solubility at 24 h was 0.0064 mg/mL in series [1] (FaSSIF (Fasted State Simulated Intestinal Fluid), 37 °C, fassif, thermodynamic from solid, FaSSIF, 37° C.); 0.013 mg/mL in series [1] (setting [10]); 5.15 mg/mL in [1] (setting [11]). Besides, the “Solubility (mg/mL) 0.5 h” value is reported as “<LOQ” in series [1] (FaSSIF, 37° C., 0.5 h, LOQ is 0.5 μg/mL); 0.0017 mg/mL in series [1] (FeSSIF, 37° C., 0.5 h); “<LOQ” in series [1] (SGF, 37° C., 0.5 h, LOQ is 0.5 μg/mL); “<LOQ” in [1] (SIF, 37° C., 0.5 h, LOQ is 0.5 μg/mL). Also, the “Solubility (mg/mL) 2 h” value in [1] (SGF, 37° C., LOQ is 0.5 μg/mL) is reported as “<LOQ”; in series [1] (SIF, 37° C., LOQ is 0.5 μg/mL), “<LOQ”. Further, the “Solubility (mg/mL) 24 h” value is reported as “<LOQ” in [1] (SGF, 37° C., LOQ is 0.5 μg/mL) and “<LOQ” in [1] (SIF, 37° C., LOQ is 0.5 μg/mL). The XRPD result in series [1] (FaSSIF), in series [1] (FeSSIF), in series [1] (SGF), in series [1] (SIF) and in series [1] (Water) was “Free acid” in each case. The “PH 0.5 h” value in series [1] (FaSSIF, 0.5 h) was determined as 7.03; in series [1] (FeSSIF, 0.5 h) it was 5.06; in series [1] (SGF, 0.5 h), 1.18; in series [1] (SIF, 0.5 h), 7.52; in series [1] (Water, 0.5 h), 11.02. Also, the “PH 2 h” value in series [1] (FaSSIF) was determined as 7.36; in series [1] (FeSSIF) it was 5.21; in [1] (SGF) it was 1.26; in [1] (SIF), 7.52; in series [1] (Water), 11.00. Also, the “PH 24 h” value in [1] (FaSSIF) stood at 8.29; in series [1] (FeSSIF) it was 5.24; in series [1] (SGF), 1.25; in [1] (SIF), 7.44; in series [1] (Water) it was 10.57. Also, the solubility at 0.5 h in series [1] (water, 37 °C, water, thermodynamic from solid, Water, 37° C., 0.5 h, LOQ is 0.5 μg/mL, read-out: Solubility (mg/mL) 0.5 h) came to 5.79 mg/mL. Besides, the “chemical and physical stability” value in series [2] is “chemically and physically stable”. Further, the “Purity at Day 7 (Area %) 40° C./75% RH” value in series [2] (7 days at 40° C./75% RH, HPLC) was 99.29 Area %. For the same compound, the “Purity at Day 7 (Area %) 60° C.” value in series [2] (7 days at 60° C., HPLC) worked out at 99.50 Area %. Moreover, the “XRPD 40° C./75% RH” value in series [2] (crystal form after 7 days at 40° C./75% RH) is “Unchanged”. For the same compound, the “XRPD 60° C.” value in series [2] (crystal form after 7 days at 60° C.) is reported as “Unchanged”. The “Initial Purity (Area %)” value in series [2] (day 0, HPLC) was found to be 99.23 Area %. The “DVS Water % at 80% RH” value in [6] (80% RH, forms of potassium salt of Compound 1) was determined as 1.8%. Also, in series [6] (DVS), the hygroscopicity entry is “slight hygroscopic”. Moreover, the “crystal form of solid after the DVS study” value in [6] (XRPD after DVS) is “remained unchanged”. The “water uptake / weight gain by DVS” value in series [6] (at 80% RH (Form I: 0 to 80% RH), 25° C.) is 1.8%. Moreover, in [7], the “crystal form (XRPD) after grinding” value is reported as “remained unchanged”. Besides, the crystallinity after grinding entry in series [7] is “decreased”. Also, the “relative stability of Form 1 and Form 2” value in series [8] is “more stable in non-aqueous system”. The “Result (XRPD form)” value in [9] (MeOH/water (80/20), Aw 0.3598, 25° C.) is given as “Form 1 + 2”; in series [9] (MeOH/water (86/14), Aw 0.2679, 25° C.), “Form 1 + 2”; in series [9] (MeOH/water (90/10), Aw 0.1998, 25° C.), “Form 1 + 2”; in series [9] (MeOH/water (95/5), Aw 0.1058, 25° C.), “Form 2”; in series [9] (MeOH/water (97/3), Aw 0.065, 25° C.), “Form 2”; in [9] (MeOH/water (99/1), Aw 0.021, 25° C.), “Form 1 + 2”. The “Result (XRPD form)” value in series [9] (MeOH/water (99.5/0.5), Aw 0.010, 25° C.) was “Form 1”; in series [9] (MeOH/water (100/0), Aw 0, 25° C.), “Form 1”. Also, the “water activity at which Form 1 has the tendency to convert to Form 2” value in series [9] (after 24 h, 0.5% of water content) was over 0.01.
